These results are taken from patent US6794408B2, “Drechsleranol derivatives, processes for their preparation and their use” (Aventis Pharma Deutschland GmbH, priority 2002, dated 2004).

A word on the IC50: it is the concentration that gives 50% inhibition.

Each structure is given as a SMILES string.

One assay concerns the target JNK-3 (Homo sapiens, UniProt P53779). Briefly: JNK-3 assay (HTRF, JNK-3/GST-ATF2). It counts as biochemical. Particulars: ATP 15 μM, 37° C., 20 minutes. The protocol:
The assay is carried out on a CyBio pipetter system in a 384-hole plate format. The assay contains 10 μL of sample (extract or pure substance, for example a compound of formula (II) or of formula (III)) in 3% DMSO, 10 μL of an enzyme/substrate mixture (JNK-3/GST-ATF2) and 10 μL of ATP in a final volume of 30 μL. After incubation at 37° C. for 20 minutes, 50 μL of the HTRF antibody mixture (XL665-anti-GST/(Eu)cryptate anti-P-ATF2) are added. After 120 minutes at room temperature, the signal emission of the energy transfer and of europium at 665 and 615 nm is measured after the samples have been stimulated at 340 nm in a Victor^2 (WALLAC).
Buffer I for the Dilution of JNK3, GST-ATF2, ATP:
Buffer II for the Dilution of the HTRF Reagents:
Each plate contains 16 positive controls (maximum energy transfer, buffer I instead of samples), 8 blank controls (minimum energy transfer, buffer II instead of ATP) and 8 holes which contain EDTA 200 μM.
The results are calculated as follows:
Firstly, the signal ratio=(intensity (665 nm)/intensity (615 nm)) is determined. A blank correction is then made using the following formula:
delta F(%)=[(ratio (sample)−ratio(minimum))/(ratio (minimum))]×100
The activity of the samples is then calculated in the following manner:
Inhibition (%)=100×[1−(delta F(sample)/delta F(maximum))]
Background: TR-FRET usually uses a lanthanide donor and a delayed reading to cut background.

The target in another assay is hCK1ε (Homo sapiens, UniProt P49674). Kind of assay: hCK1ε assay (33P-ATP, casein-coated plates). It is filed as biochemical. The following applies: 0.4 μM cold ATP, 37° C., one hour. On the procedure:
The assay is carried out in a Jobi-Well (CyBio) and Biomek 2000 pipetter system in the 384-hole plate format. The 384-hole plates are coated with 50 μL per well of a casein solution of the concentration 100 μg/mL in coating buffer (corresponds to 5 μg of casein per well, casein Sigma) and stored overnight at 4° C. Washing four times with 90 μL of wash solution 1 (50 mM HEPES pH 7.4 and 150 mM NaCl) is then carried out. The reaction is carried out in a final volume of 50 μL. During the course of this, 10 μL of dilute natural substance extract in each case, for example a compound of formula (II) or a compound of formula (III), 20 μL of hCK1ε enzyme solution (corresponds to 29 ng of […] per well) and 20 μL of ATP solution (final concentration: 0.4 μCi of ^33P-γ-ATP radiolabeled (“hot”) and 0.4 μM of cold ATP per well) are pipetted onto the coated plates. The plates are then incubated at 37° C. for one hour. The plates are then washed four times with 75 μL of wash solution 2 (phosphoric acid, 3%) and measured for 30 seconds in a MicroBeta Trilux counter (WALLAC).
hCK1ε Enzyme Solution: 1.45 μg of Recombinant hCK1ε per mL of Kinase Buffer
ATP Solution: 20 μCi/mL of ^33P-γ-ATP and 1 μM of Cold ATP […]
The inhibition of a sample can be calculated according to the following formula: […]

Chain of JNK-3 (P53779 whole entry): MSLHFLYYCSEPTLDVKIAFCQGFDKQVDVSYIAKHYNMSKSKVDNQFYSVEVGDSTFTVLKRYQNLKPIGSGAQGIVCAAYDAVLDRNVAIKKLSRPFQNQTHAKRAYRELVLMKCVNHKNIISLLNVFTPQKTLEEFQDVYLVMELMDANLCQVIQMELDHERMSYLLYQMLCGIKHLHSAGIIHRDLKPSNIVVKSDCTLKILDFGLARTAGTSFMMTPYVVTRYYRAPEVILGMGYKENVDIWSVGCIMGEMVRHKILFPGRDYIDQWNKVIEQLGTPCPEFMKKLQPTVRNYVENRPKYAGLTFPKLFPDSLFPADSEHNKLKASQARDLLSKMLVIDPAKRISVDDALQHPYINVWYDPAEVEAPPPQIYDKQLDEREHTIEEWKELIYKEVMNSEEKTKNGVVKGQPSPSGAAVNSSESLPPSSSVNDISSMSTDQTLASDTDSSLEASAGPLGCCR
Chain of hCK1ε (P49674 whole entry): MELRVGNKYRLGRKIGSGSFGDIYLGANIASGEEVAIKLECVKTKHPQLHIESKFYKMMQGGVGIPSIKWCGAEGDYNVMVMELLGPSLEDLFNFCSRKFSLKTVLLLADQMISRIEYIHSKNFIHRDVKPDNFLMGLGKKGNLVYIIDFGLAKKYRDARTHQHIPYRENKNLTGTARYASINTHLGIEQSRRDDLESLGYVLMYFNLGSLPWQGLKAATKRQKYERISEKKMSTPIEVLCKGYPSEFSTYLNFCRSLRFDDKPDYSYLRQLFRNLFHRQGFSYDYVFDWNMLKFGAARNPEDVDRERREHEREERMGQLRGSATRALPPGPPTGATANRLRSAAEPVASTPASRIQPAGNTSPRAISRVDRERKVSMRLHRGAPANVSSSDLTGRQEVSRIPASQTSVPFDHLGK

`Oc1cccc2ccc3c4ccc5cccc(O)c5c4oc3c12` [Compound III] had an IC50 at JNK-3 of 2.8 µM. Take `OCC(O)C(O)C(O)C(O)C(O)c1cc2c3ccc4cccc(O)c4c3oc2c2c(O)cccc12` (stereo not drawn) [Compound II]: the results for the IC50 against hCK1ε and against JNK-3 were 2.9 µM and 1.1 µM, respectively.
